Measurements reported in patent US20260132172A1, “IN VITRO BIOSYNTHESIS OF DIVERSE PYRIDINE-BASED MACROCYCLIC PEPTIDES” (The Brd. of Trustees of the Univ. of Illinois, priority 2022, published 2026).

Experiments:
MroB/C = MroB/C dehydration (Dha formation) of MroA precursor peptide variants, MALDI-TOF-MS / LC-MS/MS; type: biochemical, Micromonospora rosaria; details: for Dha formation: MroA2 multi-site variants, in vitro translated, MALDI-TOF-MS; for dehydration by MroBC (site and extent): MroBC assays followed by LC-MS/MS analysis, result in words
Method: In a 0.65 mL protein low-binding Eppendorf tube placed on ice. 0.75 μL of purified mroA variant template DNA was mixed with 0.75 μL of Solution B and 1 μL of Solution A of PURExpress In vitro Protein Synthesis Kit (E6800L) purchased from NEB (total volume of reaction is 2.5 μL). The translation reactions were performed at 37° C. for 1 h on an aluminum block.
For a full MroBCD substrate scope investigation, a total translation volume for each variant of 7.5 μL was performed. 1.5 μL of 90 mM iodoacetamide (IAA) was added to quench dithiothreitol (DTT) in the translation reaction mixture, a thiol-based nucleophile that can react with electrophilic dehydroalanines generated from MroBC-catalyzed dehydration assays. The translation product was split into two parts with these corresponding volumes: 3 μL and 6 μL. In the 6 μL part. 10.2 μL of the enzyme mix containing enzymes and cofactors was added along with 1.8 μL 90 mM ATP (pH 7.5), which was used to initiate the reaction. The enzyme mix was made by adding these components in the following order: HEPES pH 7.5, MgCl2, glutamate, T. bispora tRNA^Glu (CUC), thermostable inorganic pyrophosphatase (TIPP), TEV (L56V/S135G/S219V) (w/w ratio with a total amount of MBP-tagged protein=1:10), MBP-MroB, MBP-MroC, and T. bispora GluRS. The enzyme mix was incubated 25 min at room temperature before adding to the translation product to facilitate in situ TEV-catalyzed cleavage of MBP from MBP-MroB and MBP-MroC. The enzymatic reaction proceeded for 1 h at room temperature. Overall, the concentration of components in the 18 μL reaction mix is as follows: 50 mM HEPES pH 7.5, 5 mM MgCl2. L-glutamate 1 mM, 3 μM T. bispora tRNA^Glu, 1 μM T. bispora GluRS, 2 μM MBP-MroB, 2 μM MBP-MroC, […], 0.027 U/μL TIPP, and 5 mM IAA. In addition, the 3 μL part was incubated with the same buffer lacking enzymes and tRNA as a translation control.
The reactions were performed similarly as described above, with 10 μM substrate concentration and without IAA. The total volume of each reaction is 100 μL.
Enzymatic assays were desalted using solid-phase extraction prior to LC-ESI-MS/MS analysis. Specifically, except for the thiazol(in)es-containing pyritide (which utilize 8 mg Pierce C18 Spin Column), the samples were applied to Toptip C18 (10-200 μL, Glygen Corp) wetted with 50 μL of 80% acetonitrile (0.1% formic acid) and equilibrate with 150 μL of 0.1% formic acid following the manufacturer instructions. The C18 columns (tips) are then washed with 150 μL of 0.1% formic acid and eluted using 100 μL 80% acetonitrile (0.1% formic acid). The samples were then dried utilizing lyophilization and redissolved in 25% acetonitrile (80 μL for enzymatic assays of in vitro-translated substrates and 200 μL for enzymatic assays of purified substrates). Then 20 μL of each sample was injected into an Agilent AdvanceBio Peptide Plus column (2.1×150 mm, 2.7 μm) equipped with an Agilent 6545B Q-TOF interfaced with an Agilent 1290 Infinity II LC system. Mobile phase solvents were composed of H2O, 0.1% formic acid (Solvent A), and acetonitrile 0.1% formic acid (Solvent B). The column compartment was maintained at 35° C. during all experiments. The column was equilibrated with 5 column volumes of starting mobile phase (95% A and 5% B) between injections. The gradient of all LC runs was as follows: 0-2 min: 95% A 5% B, 2-3 min: 70% A 30% B, 3-18 min: 20% A 80% B, 18-20 min: 5% A 95% B. The samples were run to waste for the first 3 min before applying to the mass spectrometer. Mass range was set from 100 to 1700 m/z (except for 412MroA1 W7G: 100-3000 m/z). MS parameters were as follows: gas, 320° C. at 8 L/min: nebulizer, 35 psig: nozzle voltage, 1000 V: sheath gas, 350° C. at 11 L/min: capillary, 3500 V: fragmentor, 125 V: skimmer, 65 V: MS scan rate (10) spectra/s): MS-MS scan rate (5 spectra/s); and isolation width (MS/MS), 1.3 m z. […]

MroD = MroD [4+2] macrocyclization of didehydrated MroA2 variants, MALDI-TOF-MS; type: biochemical, Micromonospora rosaria; parameters: key: +++ indicates enzyme activity roughly equal to wild-type MroA2; ++ indicates modestly reduced enzyme activity; + indicates severely reduced enzyme activity; − indicates no detectable enzyme activity (no macrocycles observed); details: MroA2 multi-site variants; qualitatively estimated from leader peptide vs remaining didehydrated intermediate
Method: After incubation, the enzyme reaction (18 μL) was split into two equal parts. One part was treated with MBP-MroD such that the final concentration of MBP-MroD is 3 μM, and the other part was added the same volume but with buffer lacking MBP-MroD (50 mM HEPES, 300 mM NaCl, 2.5% glycerol, 0.5 mM TCEP). The reaction further proceeded for 1.5 h at room temperature. All reaction mixture was then desalted with solid-phase extraction using Ziptip with 0.6 μL C18 resin (EMD Millipore) and crystallized on an MTP384 steel target plate using either saturated sinapic acid or 50 mg/mL Super DHB [dissolved in 60% acetonitrile and 0.1% trifluoroacetic acid (TFA)] as the matrix. The crystallized spots were then analyzed using MALDI-TOF-MS (Bruker Ultraflex). The external standard for MALDI-TOF-MS analysis is ProteoMass Peptide and Protein MALDI-MS Calibration Kit (Sigma).

Substance	Dha formation (MroB/C)	Relative MroD conversion (MroD)	dehydration by MroBC (site and extent) (MroB/C)
SGIKNDASWLI [Number 23]	2 Dha	+++	–
SGRGYALSWLI [Number 25]	2 Dha	++	–
SGLKFYHSWLI [Number 44]	2 Dha	+++	–
SGHDNQARSWLI [Number 49]	2 Dha	+++	–
SGAGLNRSWLI [Number 17]	2 Dha	+++	–
SGKAPGRSWLI [Number 16]	2 Dha	+++	–
SGHWANSWLI [Number 15]	2 Dha	+++	–
SGKALERSWLI [Number 29-F7R]	Mix of 1,2	++	–
SGKLGFSWLI [Number 10]	2 Dha	+	–
SGQPQRLGSWLI [Number 42]	2 Dha	+++	–
SGQGRNVSWLI [Number 24]	2 Dha	+	–
S7G/110G: MroA2 variant (MRRRGSMDNVVTEAAEFADLDIVDLDLAVDEELAALSVGGLGNTEVGASGFFGRGWLG)	–	–	completely dehydrated at Ser1
SGMARYSWLI [Number 26]	2 Dha	+	–
SGPKGSWLI [Number 5]	2 Dha	+++	–
SGYANRAGSWLI [Number 33]	2 Dha	+++	–
SGQYKFRSWLI [Number 48]	2 Dha	+++	–
SGDDRDGGSWLI [Number 27]	Mix of 1, 2	+	–
SGEMHQHSWLI [Number 41]	Mix of 1, 2	+	–
SGAWRSWLI [Number 6]	2 Dha	+++	–
MroA2-SIG: MroA2 variant (MRRRGSMDNVVTEAAEFADLDIVDLDLAVDEELAALSVGGLGNTEVGAGGFFGRSWLI)	–	–	went to completion
SGVKAWSWLI [Number 14]	2 Dha	+++	–
SGKGKQASWLI [Number 19]	2 Dha	–	–
SGMPRGSWLI [Number 8]	2 Dha	+++	–

Substance	Dha formation (MroB/C)	Relative MroD conversion (MroD)	dehydration by MroBC (site and extent) (MroB/C)
SGHQFKSWLI [Number 22]	2 Dha	+++	–
SGVKFSWLI [Number 3]	2 Dha	+	–
S7G/W8G: MroA2 variant (MRRRGSMDNVVTEAAEFADLDIVDLDLAVDEELAALSVGGLGNTEVGASGFFGRGGLI)	–	–	completely dehydrated at Ser1
SGQDVANRSWLI [Number 43]	2 Dha	+++	–
SGHAAHSWLI [Number 7]	2 Dha	+++	–
SGGYRPRSWLI [Number 38-H7R]	2 Dha	+++	–
SGNAWIKSWLI [Number 32]	2 Dha	+++	–
SGFIRNASWLI [Number 31]	2 Dha	++	–
SGAQQHSWLI [Number 13]	2 Dha	+++	–
SGAVRFNGSWLI [Number 36]	2 Dha	+	–
MroA2-S1G/W8G: MroA2 variant (MRRRGSMDNVVTEAAEFADLDIVDLDLAVDEELAALSVGGLGNTEVGAGGFFGRSGLI)	–	–	inefficiently dehydrated at Ser7
SGQGRNRSWLI [Number 24-V7R]	2 Dha	+++	–
SGRYHSWLI [Number 12]	2 Dha	+++	–
SGREFANSWLI [Number 35]	2 Dha	+	–
SGDGWRSWLI [Number 18]	2 Dha	+++	–
SGRYAGRSWLI [Number 39-W7R]	2 Dha	+++	–
SGLGHSWLI [Number 1]	2 Dha	+	–
SGYRRRAGSWLI [Number 50]	2 Dha	+++	–
SGNERGSWLI [Number 9]	2 Dha	+++	–
SGPKRWGHSWLI [Number 51]	2 Dha	+	–
SGREFARSWLI [Number 35-N7R]	2 Dha	+++	–
SGDAMRWASWLI [Number 53]	2 Dha	–	–
MroA2-S7G: MroA2 variant (MRRRGSMDNVVTEAAEFADLDIVDLDLAVDEELAALSVGGLGNTEVGASGFFGRGWLI)	–	–	went to completion
